In ChEMBL document CHEMBL1157418, “Synthesis and antitumor activity evaluations of albumin-binding prodrugs of CC-1065 analog” (Bioorg Med Chem, 2008):
Active and inactive are the calls of the source. The rule behind the calls is not given here.

Assays:
[1] = system: MC-38; test: Antitumor activity in BDF1 mouse bearing colon 38 cells assessed as tumor growth inhibition at 70 mg/kg, iv daily 4 times for 3 days; type: functional; details: MC-38, 72 h, read-out: TGI
[2] = system: MC-38; test: Antitumor activity in BDF1 mouse bearing colon 38 cells assessed as maximum weight loss at 70 mg/kg, iv daily 4 times for 3 days; type: functional
[3] = system: MC-38; test: Antitumor activity in BDF1 mouse bearing colon 38 cells assessed as cell death at 70 mg/kg, iv daily 4 times for 3 days; type: functional
[4] = system: L1210; test: Cell cycle arrest in mouse L1210 cells by accumulation at G2/M phase at 0.1 ug/ml after 24 hrs by flow cytometry; type: functional, cell-based
[5] = system: L1210; test: Cell cycle arrest in mouse L1210 cells by accumulation at S phase at 0.1 ug/ml after 24 hrs by flow cytometry; type: functional, cell-based
[6] = system: MC-38; test: Antitumor activity in BDF1 mouse bearing colon 38 cells assessed as cell death at 100 mg/kg, iv daily 4 times for 3 days; type: functional
[7] = system: MC-38; test: Antitumor activity in BDF1 mouse bearing colon 38 cells assessed as maximum weight loss at 100 mg/kg, iv daily 4 times for 3 days; type: functional
[8] = system: MC-38; test: Antitumor activity in BDF1 mouse bearing colon 38 cells assessed as tumor growth inhibition at 100 mg/kg, iv daily 4 times for 3 days; type: functional; details: MC-38, 72 h, read-out: TGI
[9] = system: L1210; test: Antitumor activity against mouse L1210 cells assessed as inhibition of [3H]thymidine uptake after 48 hrs; type: functional, cell-based
[10] = Antitumor activity in BALB/c mouse bearing JC cells assessed as cell death at 8.0 mg/kg, iv daily 4 times for 3 days; type: functional
[11] = system: L1210; test: Antitumor activity in BDF1 mouse bearing mouse L1210 cells assessed as increase of life span at 10 mg/kg, iv; type: functional
[12] = system: L1210; test: Cell cycle arrest in mouse L1210 cells by accumulation at G2/M phase at 1 ug/ml after 12 hrs by flow cytometry; type: functional, cell-based
[13] = Antitumor activity in BALB/c mouse bearing JC cells assessed as tumor growth inhibition at 8.0 mg/kg, iv daily 4 times for 3 days; type: functional; details: 72 h, read-out: TGI
[14] = system: SK-OV-3; test: Anticancer activity in CD1 mouse xenografted with human SKOV3 cells assessed as tumor growth inhibition at 5 mg/kg, iv; type: functional; details: read-out: TGI
[15] = Antitumor activity in BALB/c mouse bearing JC cells assessed as maximum weight loss at 8.0 mg/kg, iv daily 4 times for 3 days; type: functional
[16] = system: SK-OV-3; test: Anticancer activity in CD1 mouse xenografted with human SKOV3 cells assessed as weight change at 5 mg/kg, iv; type: functional

For `O=c1[nH]cc(F)c(=O)[nH]1` [FLUOROURACIL], which inhibition in vivo at 70 mg/kg [1] is on record?
Its inhibition in vivo at 70 mg/kg is 95%.

What about the Activity [2] of the same compound?
The Activity was -7%.

And the LCK [3]?
The LCK was 1.1.

Which Activity [4] does the source give for `Cc1c[nH]c2c1[C@@]13C[C@@H]1CN(C(=O)c1cc4cc(NC(=O)c5cc6ccccc6o5)ccc4[nH]1)C3=CC2=O` here?
The Activity was “Active”.

What about the Activity [5] of the same compound?
Its Activity is “Active”.

With `CCc1c2c(nc3ccc(OC(=O)N4CCC(N5CCCCC5)CC4)cc13)C1CC3=C(COC(=O)[C@]3(O)CC)C(=O)N1C2` (stereo partly specified) as the compound, how does the LCK [6] read?
Its LCK is 1.7.

What about the Activity [7] of the same compound?
The Activity was -7%.

And the inhibition in vivo at 100 mg/kg [8]?
Its inhibition in vivo at 100 mg/kg is 96%.

Which results are given for `COc1cccc2c1C(=O)c1c(O)c3c(c(O)c1C2=O)C[C@@](O)(C(=O)CO)C[C@@H]3O[C@H]1C[C@H](N)[C@H](O)[C@H](C)O1` [DOXORUBICIN]?
IC50 [9]: 182 nM; LCK [10]: 0.78; Activity [11]: 85%; Activity [12]: Active; inhibition in vivo at 8 mg/kg [13]: 82%; inhibition in vivo at 5 mg/kg [14]: 39%; Activity [15]: -25%; Activity [16]: -4%
